# Measured values reported in PubChem BioAssay (NCI).
#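 1) Cells in 96-well plates. 2) Compound, 48 h, 5 concentrations. 3) Linear interpolation between surrounding doses. 4) Unreached endpoint = highest concentration. At the GI50, growth is halved. At the TGI there is no net growth.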
# How the values were obtained:
# Experiment in all cases: DTP human tumour cell line panel, 48 h
# NCI-H460 lung = test system: NCI-H460 lung
# SN12C renal = test system: SN12C renal
# SK-OV-3 ovarian = test system: SK-OV-3 ovarian
# T-47D breast = test system: T-47D breast
# MOLT-4 leukemia = test system: MOLT-4 leukemia
# SK-MEL-28 melanoma = test system: SK-MEL-28 melanoma
# COLO 205 colon = test system: COLO 205 colon
# SK-MEL-2 melanoma = test system: SK-MEL-2 melanoma
# MALME-3M melanoma = test system: MALME-3M melanoma
# K-562 leukemia = test system: K-562 leukemia
# SF-539 CNS = test system: SF-539 CNS
# OVCAR-3 ovarian = test system: OVCAR-3 ovarian
# OVCAR-5 ovarian = test system: OVCAR-5 ovarian
# CAKI-1 renal = test system: CAKI-1 renal
# HCC-2998 colon = test system: HCC-2998 colon
# UACC-62 melanoma = test system: UACC-62 melanoma
# TK-10 renal = test system: TK-10 renal
# HOP-92 NSCLC = test system: HOP-92 NSCLC
# SW-620 colon = test system: SW-620 colon
# PC-3 prostate = test system: PC-3 prostate
# OVCAR-4 ovarian = test system: OVCAR-4 ovarian
# MCF7 breast = test system: MCF7 breast
# NCI-H226 lung = test system: NCI-H226 lung
# IGROV1 ovarian = test system: IGROV1 ovarian
# OVCAR-8 ovarian = test system: OVCAR-8 ovarian
# SF-295 CNS = test system: SF-295 CNS
# LOX IMVI melanoma = test system: LOX IMVI melanoma
# 786-0 renal = test system: 786-0 renal
# HL-60(TB) leukemia = test system: HL-60(TB) leukemia
# U251 CNS = test system: U251 CNS
# BT-549 breast = test system: BT-549 breast
# HT29 colon = test system: HT29 colon
# HOP-62 NSCLC = test system: HOP-62 NSCLC
# SNB-19 CNS = test system: SNB-19 CNS
# ACHN renal = test system: ACHN renal
# NCI/ADR-RES ovarian = test system: NCI/ADR-RES ovarian
# MDA-MB-435 = test system: MDA-MB-435
# HCT-116 colon = test system: HCT-116 colon
# NCI-H522 lung = test system: NCI-H522 lung
# SNB-75 CNS = test system: SNB-75 CNS
# DU-145 prostate = test system: DU-145 prostate
# A549 NSCLC = test system: A549 NSCLC
# RPMI-8226 leukemia = test system: RPMI-8226 leukemia
# HS 578T breast = test system: HS 578T breast
# UO-31 renal = test system: UO-31 renal
# HCT-15 colon = test system: HCT-15 colon
# UACC-257 melanoma = test system: UACC-257 melanoma
# SF-268 CNS = test system: SF-268 CNS
# SR leukemia = test system: SR leukemia
# KM12 colon = test system: KM12 colon
# CCRF-CEM leukemia = test system: CCRF-CEM leukemia
# M14 melanoma = test system: M14 melanoma
# MDA-MB-231 breast = test system: MDA-MB-231 breast
# SK-MEL-5 melanoma = test system: SK-MEL-5 melanoma
# NCI-H23 lung = test system: NCI-H23 lung
# RXF 393 renal = test system: RXF 393 renal
# EKVX NSCLC = test system: EKVX NSCLC
structure (smiles),measurement,setting,value
Nc1c(C(=O)Nc2ccccn2)sc2nc3c(cc12)CCCCCC3,GI50,NCI-H460 lung,1.12 µM
same,TGI,NCI-H460 lung,6.62 µM
same,GI50,SN12C renal,3.17 µM
same,TGI,SN12C renal,37.3 µM
same,GI50,SK-OV-3 ovarian,1.91 µM
same,TGI,SK-OV-3 ovarian,15.2 µM
same,GI50,T-47D breast,2.09 µM
same,TGI,T-47D breast,34.6 µM
same,GI50,MOLT-4 leukemia,0.392 µM
same,TGI,MOLT-4 leukemia,> 50 µM
same,GI50,SK-MEL-28 melanoma,1.63 µM
same,TGI,SK-MEL-28 melanoma,19.6 µM
same,GI50,COLO 205 colon,1.49 µM
same,TGI,COLO 205 colon,13.6 µM
same,GI50,SK-MEL-2 melanoma,0.965 µM
same,TGI,SK-MEL-2 melanoma,9.83 µM
same,GI50,MALME-3M melanoma,1.26 µM
same,TGI,MALME-3M melanoma,13.8 µM
same,GI50,K-562 leukemia,0.204 µM
same,TGI,K-562 leukemia,38.5 µM
same,GI50,SF-539 CNS,0.58 µM
same,TGI,SF-539 CNS,3.07 µM
same,GI50,OVCAR-3 ovarian,0.626 µM
same,TGI,OVCAR-3 ovarian,2.47 µM
same,GI50,OVCAR-5 ovarian,2.67 µM
same,TGI,OVCAR-5 ovarian,17.9 µM
same,GI50,CAKI-1 renal,1.56 µM
same,TGI,CAKI-1 renal,9.33 µM
same,GI50,HCC-2998 colon,1.61 µM
same,TGI,HCC-2998 colon,33.1 µM
same,GI50,UACC-62 melanoma,0.376 µM
same,TGI,UACC-62 melanoma,10.3 µM
same,GI50,TK-10 renal,2.87 µM
same,TGI,TK-10 renal,10.3 µM
same,GI50,HOP-92 NSCLC,1.86 µM
same,TGI,HOP-92 NSCLC,11.4 µM
same,GI50,SW-620 colon,0.389 µM
same,TGI,SW-620 colon,22.7 µM
same,GI50,PC-3 prostate,1.54 µM
same,TGI,PC-3 prostate,12.2 µM
same,GI50,OVCAR-4 ovarian,4.21 µM
same,TGI,OVCAR-4 ovarian,15.8 µM
same,GI50,MCF7 breast,0.179 µM
same,TGI,MCF7 breast,10.2 µM
same,GI50,NCI-H226 lung,3.15 µM
same,TGI,NCI-H226 lung,18.5 µM
same,GI50,IGROV1 ovarian,1.95 µM
same,TGI,IGROV1 ovarian,13.9 µM
same,GI50,OVCAR-8 ovarian,2.21 µM
same,TGI,OVCAR-8 ovarian,15.8 µM
same,GI50,SF-295 CNS,0.426 µM
same,TGI,SF-295 CNS,5.43 µM
same,GI50,LOX IMVI melanoma,2.97 µM
same,TGI,LOX IMVI melanoma,41.9 µM
same,GI50,786-0 renal,0.776 µM
same,TGI,786-0 renal,6.24 µM
same,GI50,HL-60(TB) leukemia,0.14 µM
same,TGI,HL-60(TB) leukemia,1.43 µM
same,GI50,U251 CNS,0.97 µM
same,TGI,U251 CNS,9.07 µM
same,GI50,BT-549 breast,0.524 µM
same,TGI,BT-549 breast,18 µM
same,GI50,HT29 colon,0.36 µM
same,TGI,HT29 colon,5.67 µM
same,GI50,HOP-62 NSCLC,1.55 µM
same,TGI,HOP-62 NSCLC,11 µM
same,GI50,SNB-19 CNS,1.22 µM
same,TGI,SNB-19 CNS,13.8 µM
same,GI50,ACHN renal,2.41 µM
same,TGI,ACHN renal,10.9 µM
same,GI50,NCI/ADR-RES ovarian,0.57 µM
same,TGI,NCI/ADR-RES ovarian,41.4 µM
same,GI50,MDA-MB-435,0.143 µM
same,TGI,MDA-MB-435,0.509 µM
same,GI50,HCT-116 colon,0.225 µM
same,TGI,HCT-116 colon,7.14 µM
same,GI50,NCI-H522 lung,1.79 µM
same,TGI,NCI-H522 lung,> 50 µM
same,GI50,SNB-75 CNS,0.649 µM
same,TGI,SNB-75 CNS,21.6 µM
same,GI50,DU-145 prostate,1.18 µM
same,TGI,DU-145 prostate,5.77 µM
same,GI50,A549 NSCLC,1.65 µM
same,TGI,A549 NSCLC,9.17 µM
same,GI50,RPMI-8226 leukemia,0.915 µM
same,TGI,RPMI-8226 leukemia,30 µM
same,GI50,HS 578T breast,0.935 µM
same,TGI,HS 578T breast,12.4 µM
same,GI50,UO-31 renal,4.56 µM
same,TGI,UO-31 renal,22.2 µM
same,GI50,HCT-15 colon,0.254 µM
same,TGI,HCT-15 colon,11.1 µM
same,GI50,UACC-257 melanoma,7.88 µM
same,TGI,UACC-257 melanoma,30.7 µM
same,GI50,SF-268 CNS,2.48 µM
same,TGI,SF-268 CNS,22.6 µM
same,GI50,SR leukemia,0.197 µM
same,TGI,SR leukemia,> 50 µM
same,GI50,KM12 colon,0.511 µM
same,TGI,KM12 colon,> 50 µM
same,GI50,CCRF-CEM leukemia,0.355 µM
same,TGI,CCRF-CEM leukemia,> 50 µM
same,GI50,M14 melanoma,0.295 µM
same,TGI,M14 melanoma,3.05 µM
same,GI50,MDA-MB-231 breast,2.5 µM
same,TGI,MDA-MB-231 breast,15.2 µM
same,GI50,SK-MEL-5 melanoma,0.906 µM
same,TGI,SK-MEL-5 melanoma,7.22 µM
same,GI50,NCI-H23 lung,2.25 µM
same,TGI,NCI-H23 lung,> 50 µM
same,GI50,RXF 393 renal,0.903 µM
same,TGI,RXF 393 renal,4.07 µM
same,GI50,EKVX NSCLC,4.1 µM
same,TGI,EKVX NSCLC,23.3 µM
